The source of these data is US4626535A, “Cephalosporins” (Bayer Aktiengesellschaft, priority 1983, dated 1986).

SMILES strings stand for the structures. Values after ≈ are worked out from the molar mass of the structure shown.

Assay in all cases: in vitro MIC comparison in Isosensitest agar
What all share (format): cell-based

Assay [1] concerns Enterobacter Cloacae 56US. As to conditions: CLOACAE56US. The text has this:
(§1) The compound of Example 21 was compared in vitro with Cefotaxim (MIC-comparison in Isosensitest agar): […]

The test system of assay [2] is Psdm. 7035. As to conditions: Pseudomonas.
Source text: as §1

The test system of assay [3] is Psdm. Walter. As to conditions: Pseudomonas.
Source text: as §1

Assay [4] relates to Staph. 133. The note with it: Staphylococcus.
Source text: as §1

The test system of assay [5] is Staph. 1756. As to conditions: Staphylococcus.
Source text: as §1

Assay [6] has as its system Staph. 25470. The note with it: Staphylococcus.
Source text: as §1

Assay [7] has as its system Staph. E. As to conditions: Staphylococcus.
Source text: as §1

Regarding `C/C=C(\C(=O)NC1C(=O)N2C(C(=O)[O-])=C(C[n+]3ccccc3)CSC12)c1nsc(N)n1` (centres unmarked) [Example 21, 7-(1-(5-Amino-1,2,4-thiadiazol-3-yl)-1(Z)-propenecarboxamido)-3-pyridiniummethyl-3-cephem-4-carboxylate], the MIC (commonly the lowest concentration found to suppress growth) in assay [1] was 64 µg/mL (≈ 140 µM); in assay [2] it was 8 µg/mL (≈ 17.4 µM); in assay [3] it was 8 to 16 µg/mL (≈ 17.4 to 34.9 µM); in assay [4], 0.5 µg/mL (≈ 1.09 µM); in assay [5] it was 8 µg/mL (≈ 17.4 µM); in assay [6], 8 µg/mL (≈ 17.4 µM). This compound registered a minimum inhibitory concentration (MIC) in assay [7] of 0.125 µg/mL (≈ 0.273 µM).
For the compound `CO/N=C(\C(=O)N[C@@H]1C(=O)N2C(C(=O)O)=C(COC(C)=O)CS[C@H]12)c1csc(N)n1` [Cefotaxim], the minimal inhibitory concentration (MIC) in assay [1] is > 128 µg/mL; in assay [2] it was 16 µg/mL (≈ 35.1 µM); in assay [3], 16 µg/mL (≈ 35.1 µM); in assay [4], 1 µg/mL (≈ 2.2 µM); in assay [5], 128 µg/mL (≈ 281 µM); in assay [6], > 128 µg/mL. For the same compound, the MIC in assay [7] is 0.5 µg/mL (≈ 1.1 µM).
